Calls of active or inactive are those of the source. The calls are words filed in the database; no cut-off is given here.
Columns and labels:
Assay type in all cases: nucleic-acid assay
Settings in all cases: Bos taurus
Nucleic Acid [1] = assay: Binding affinity to calf thymus DNA assessed as hydrogen bonding
Nucleic Acid [2] = assay: Binding affinity to calf thymus DNA at 50 uM by circular dichroism spectra
Nucleic Acid [3] = assay: Binding affinity to calf thymus DNA assessed as partial intercalation
Nucleic Acid [4] = assay: Binding affinity to calf thymus DNA at DNA/compound ratio 0.1 to 2 at pH 7 by measuring DNA viscosity
Nucleic Acid [5] = assay: Binding affinity to calf thymus DNA in Brittone-Robinson buffer at 50 uM at pH 7 by UV-vis spectroscopy
Nucleic Acid [6] = assay: Binding affinity to calf thymus DNA in Brittone-Robinson buffer at 50 uM by UV-vis spectroscopy in presence of native DNA
Nucleic Acid [7] = assay: Binding affinity to calf thymus DNA in Brittone-Robinson buffer at 50 uM at pH 3 by UV-vis spectroscopy
Nucleic Acid [8] = assay: Binding affinity to calf thymus DNA in Brittone-Robinson buffer at 50 uM at pH 7 in presence of NaCl by UV-vis spectroscopy
Nucleic Acid [9] = assay: Binding affinity to calf thymus DNA in Brittone-Robinson buffer at 50 uM by UV-vis spectroscopy in presence of denatured DNA
Nucleic Acid [10] = assay: Ratio of danthron Kb to quinizarin Kb for calf thymus DNA

Kb (Nucleic Acid [1]) [×10⁴ /M]	Activity (Nucleic Acid [2])	Kb (Nucleic Acid [3])	Activity (Nucleic Acid [4])	Activity (Nucleic Acid [5])	Activity (Nucleic Acid [6])	Activity (Nucleic Acid [7])	Activity (Nucleic Acid [8])	Activity (Nucleic Acid [9])	Ratio (Nucleic Acid [10])	SMILES
3.6	Active	7.2 ×10⁶ /M	Active	Active	Active	inactive	Active	Active		O=C1c2cccc(O)c2C(=O)c2c(O)cccc21
1.66	Active	3.2 ×10⁷ /M	Active	Active	Active	inactive	Active	Active	5	O=C1c2ccccc2C(=O)c2c(O)ccc(O)c21

— ChEMBL document CHEMBL2146406, “DNA-binding study of anthraquinone derivatives using chemometrics methods” (Eur J Med Chem, 2011)
